Test results published in patent US10660912B2, “Combination therapy for cancer” (NuCana plc, priority 2015, dated 2020).

Assays:
[1] = tested on: platinum sensitive recurrent ovarian cancer; conditions: cited from earlier work
[2] = human, in vivo
Method: Intracellular concentrations were normalised to tissue protein concentrations. dFdCTP=2′,2′-difluoro-2′-deoxycytidine; PBMCs=Peripheral Blood Mononuclear Cells.
6 ml of blood was collected using heparinised blood collection tubes. After centrifugation and separation of plasma, buffycoat was collected and transferred to new test tube containing 3 ml of Lymphoprep density gradient. After centrifugation, the upper interface containing the PBMC layer was transferred to new test tube. After washing with phosphate buffered saline (PBS), PBMCs were re-suspended in 100 μl PBS. Then, another 100 μl of 0.8 M PCA was added and the mixture was vortex mixed and centrifuged followed by transfer of 100 μl supernatant to new test tube. The PCA extracts were stored at −80° C. until time of analysis.
PCA extracts were buffered using 50 μl of 1M NH4Ac, then neutralised using 20 μl of 10% ammonia solution. Finally, 5 μl containing the internal standard 8-ChloroATP and 5 μl deionised water were then added. The extracts were transferred to LC-MS vials and 10 μl were injected into the UPLC-MS/MS system.
10 mg/mL stock solution of the analyte was prepared and aliquot frozen at −80° C. until use. The analyte was resolved using an ultra-performance liquid chromatography system (Accela UPLC, Thermo Scientific, UK) equipped with a Biobasic AX, 5 μm, 50×2.1 mm column (Thermo Electron Corporation, Murrieta, Calif., USA) and a mobile phase consisting of a mixture of 10 mM NH4Ac in ACN/H2O (30:70 v/v), pH 6.0 (A), and 1 mM NH4Ac in ACN/H2O (30:70 v/v), pH 10.5 (B). The mobile phase gradient was employed, comprising: buffer A=95% at 0-0.5 min, from 95 to 0% over 1.25 minutes, held at 0% for 1.75 minute, from 0 to 95% over 0.1 minutes, ending with 95% for 2.9 minutes, all at a flow rate of 500 μl/min.
Eluting compounds of interest were detected using a triple stage quadrupole Vantage mass spectrometry system (Thermo Scientific, UK) equipped with an electrospray ion source. Samples were analyzed in the Multiple Reaction Monitoring (MRM), positive (+ve) and negative (−ve) ion modes at a spray voltage of 3500 and 3000 V, respectively. Nitrogen was used as sheath and auxiliary gases at a flow rate of 50 and 20 arbitrary units, respectively. Argon was used as collision gas with pressure of 1.5 mTorr.
The combination regimen NUC-1031 with carboplatin was administered to 10 patients with ovarian cancer as part of the Phase Ib study PRO-002.

| Structure (SMILES) | response rate ([1]; P=0.0016) | median PFS ([1]; median follow-up 17 months, carboplatin AUC5 alone or AUC4 day 1 plus gemcitabine 1000 mg/m^2 days 1 & 8 every 3 weeks) | Apparent t1/2 (intracellular dFdCTP) ([2]; female) | Clearance ([2]; female) | Tmax (intracellular dFdCTP) ([2]; female) | Cmax intracellular dFdCTP levels relative to gemcitabine in combination with carboplatin [2] | intracellular dFdCTP Cmax concentrations relative to gemcitabine [2] | levels of the toxic metabolite normally associated with gemcitabine [2] |
| --- | --- | --- | --- | --- | --- | --- | --- | --- |
| N.N.O=C([O-])C1(C(=O)[O-])CCC1.[Pt+2] [carboplatin] | 30.9% | 5.8 months |  |  |  |  |  |  |
| C[C@H](NP(=O)(OC[C@H]1O[C@@H](n2ccc(N)nc2=O)C(F)(F)[C@@H]1O)Oc1ccccc1)C(=O)OCc1ccccc1 (stereo partly drawn) [NUC-1031, 2′-Deoxy-2′,2′-difluoro-D-cytidine-5′-O-[phenyl (benzoxy-L-alaninyl)] phosphate] |  |  | 9.6 h | 3.9 L/h | 1 h | 4 fold | around 10 × | less than half |
